For assay [1], the target named is T1, FAP enzyme activity in mouse plasma (Mus musculus, UniProt P97321).
T1 construct: tissue Charles River; host or cells: plasma of male C57Bl/6 mice after oral dosing
T1 sequence (P97321 24-761 limits assumed): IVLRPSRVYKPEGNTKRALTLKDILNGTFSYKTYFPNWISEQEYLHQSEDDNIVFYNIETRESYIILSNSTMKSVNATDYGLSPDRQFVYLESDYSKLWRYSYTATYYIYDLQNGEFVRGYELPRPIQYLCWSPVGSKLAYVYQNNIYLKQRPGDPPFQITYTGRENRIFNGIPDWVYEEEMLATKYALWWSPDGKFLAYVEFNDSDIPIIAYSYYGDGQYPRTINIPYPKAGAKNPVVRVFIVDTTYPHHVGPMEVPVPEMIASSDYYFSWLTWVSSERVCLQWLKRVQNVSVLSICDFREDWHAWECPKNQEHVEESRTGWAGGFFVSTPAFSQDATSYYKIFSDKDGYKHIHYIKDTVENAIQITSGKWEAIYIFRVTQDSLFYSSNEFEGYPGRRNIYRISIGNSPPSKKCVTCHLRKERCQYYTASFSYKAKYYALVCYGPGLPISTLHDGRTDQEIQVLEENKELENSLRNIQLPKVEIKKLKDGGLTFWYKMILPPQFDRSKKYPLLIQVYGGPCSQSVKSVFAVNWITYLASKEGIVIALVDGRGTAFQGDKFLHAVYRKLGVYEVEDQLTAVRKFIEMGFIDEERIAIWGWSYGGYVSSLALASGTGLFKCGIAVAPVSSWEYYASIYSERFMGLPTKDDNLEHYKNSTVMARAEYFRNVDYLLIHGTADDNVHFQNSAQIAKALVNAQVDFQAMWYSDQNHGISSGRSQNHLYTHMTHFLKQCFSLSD
As to the kind of experiment: FAP target engagement enzyme activity in mouse plasma (in vivo). To be noted: male C57Bl/6 mice, single oral dose 3 or 10 mg/kg; exposure vs plasma FAP activity, Imax fixed to 1. How it is done: The effect of test compound on FAP enzyme activity in mouse plasma was evaluated in an enzymatic assay using the Fibroblast Activation Protein alpha (FAP) specific fluorogenic substrate dipeptide-Coumarin, Ala-Pro-AMC, (ARI-3144). In this assay, FAP cleaves Ala-Pro-AMC to release free AMC which is measured as a fluorescent signal that correlates with enzyme activity.
Male C57Bl/6 mice (Charles River, Germany), 8 weeks of age, were single housed in a temperature-controlled room with a 12-hour light/dark cycle (06:00-18:00 light). The mice had ad libitum access to water and rodent chow diet (R70, Lactamin, Kimstad, Sweden), and were acclimated for 5 days upon arrival. After acclimation, all mice received a single oral dose of test compound (3 or 10 mg/kg). Blood samples for whole blood compound exposure measurements were taken at 0.25, 0.5, 1, 2, 4, 8 and 24 h post oral dosing. Samples were collected in EDTA capillary tubes (20 μL, K2E, REF 19.447) and were transferred to a 96-deep well plate (NUNC, Thermo Discher Scientific) and stored at −20° C. until further analyses were performed. […]
Recombinant human FAP (PB-17-1837, construct PL-17-0278, cd33-FAP (27-757)-6His, Mw85926 Da) was used as a standard for this assay. […] The plates were read on a Beckman Paradigm reader with excitation 360 nm and emission 465 nm. Fluorescence measurements were performed with kinetic read every 5 minutes for 60 min at rt. Data were analyzed in Excel (IDBS XLfit Add-In) using a Linear Regression (y=k*x+m) model to prepare a human recombinant FAP standard curve.
On the day of the assay, plasma was diluted (1:2) to 20 μL volume in buffer (PBS, 0.1% BSA) and 7.5 μL was transferred to the assay plate (384-well black, fluotrack PS, Greiner 781076). […] The plates were read on a Beckman Paradigm reader with excitation 360 nm and emission 465 nm. Fluorescence measurements were performed with kinetic read every 5 minutes for 60 minutes at rt. As noted above, FAP cleaves Ala-Pro-AMC to release free AMC which is measured as a fluorescent signal. […]

Assay [2] concerns the target T2, human dipeptidylpeptidase 9 (hDPP9) (Homo sapiens, UniProt Q86TI2).
T2 construct: purchased BPS Bioscience 80090
Description: hDPP9 inhibition assay. The assay is classed as biochemical. To be noted: hDPP9 0.4 nM, Ala-Pro-amino-methylcoumarin 5 μM; n = 1. As to the method:
Compounds were tested in a biochemical inhibition assay using human dipeptidylpeptidase 9 (hDPP9) enzyme at 0.4 nM FAC (BPS Bioscience, #80090) and the substrate Ala-Pro-amino-methylcoumarin (BPS Bioscience #80305) at 5 μM FAC. The enzymatic reactions were conducted in duplicate at rt for 30 min in 50 μL DPP assay buffer (BPS Bioscience, #80300). Compound solutions (in DMSO) at 10 CR, 3 fold dilution series were prepared in assay buffer ten-fold higher than the final concentration, and 5 μL of the dilution was added to a 50 μL reaction so that the highest compound concentration was 100 μM FAC and the concentration of DMSO was 1% in all wells. The plates were read on a Tecan Infinite M1000 microplate reader with excitation 340 nm and emission 460 nm. Data were analyzed in Graph Pad Prism. […] Raw data signals were normalized using 1% DMSO as 0% control and no enzyme as 100% inhibitor control.

T2 sequence (Q86TI2 whole entry): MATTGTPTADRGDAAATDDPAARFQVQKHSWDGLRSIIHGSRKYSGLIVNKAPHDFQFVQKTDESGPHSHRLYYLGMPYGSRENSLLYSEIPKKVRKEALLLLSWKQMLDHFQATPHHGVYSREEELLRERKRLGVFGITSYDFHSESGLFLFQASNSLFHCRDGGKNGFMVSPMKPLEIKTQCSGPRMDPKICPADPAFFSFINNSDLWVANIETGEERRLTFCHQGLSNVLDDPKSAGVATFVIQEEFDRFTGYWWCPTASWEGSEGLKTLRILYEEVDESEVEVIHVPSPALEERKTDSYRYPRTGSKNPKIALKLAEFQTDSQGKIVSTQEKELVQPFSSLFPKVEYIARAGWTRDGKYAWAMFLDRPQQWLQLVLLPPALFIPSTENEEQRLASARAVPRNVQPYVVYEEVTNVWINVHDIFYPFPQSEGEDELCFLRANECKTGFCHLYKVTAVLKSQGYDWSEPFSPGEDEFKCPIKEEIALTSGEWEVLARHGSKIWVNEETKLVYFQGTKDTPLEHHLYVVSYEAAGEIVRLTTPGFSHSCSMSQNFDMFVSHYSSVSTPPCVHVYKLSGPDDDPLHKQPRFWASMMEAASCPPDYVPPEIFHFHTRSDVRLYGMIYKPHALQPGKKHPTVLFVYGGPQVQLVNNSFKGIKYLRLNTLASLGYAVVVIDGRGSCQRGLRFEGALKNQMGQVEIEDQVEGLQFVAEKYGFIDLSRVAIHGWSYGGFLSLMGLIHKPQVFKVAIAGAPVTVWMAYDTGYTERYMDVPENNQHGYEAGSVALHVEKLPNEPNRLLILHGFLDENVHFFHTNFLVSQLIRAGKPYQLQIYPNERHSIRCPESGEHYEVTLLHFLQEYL

In assay [1], `CO[C@H]1CC[C@H](c2ccc3nccc(C(=O)NCC(=O)N4CSC[C@H]4C#N)c3c2)CC1` (single isomer, unassigned) [Example 78, N-(2-((R)-4-Cyanothiazolidin-3-yl)-2-oxoethyl)-6-((1r,4R*)-4-methoxycyclohexyl)quinoline-4-carboxamide] came in with an IC50 of 2.6 nM. For `CC(C)(F)COc1ccc2nccc(C(=O)NCC(=O)N3CSC[C@H]3C#N)c2c1` [Example 3, (R)—N-(2-(4-Cyanothiazolidin-3-yl)-2-oxoethyl)-6-(2-fluoro-2-methylpropoxy)quinoline-4-carboxamide], the results for the 50% inhibitory concentration (IC50) in assay [2] and in assay [1] were 1900 nM and 7.6 nM, respectively. In the case of `N#C[C@@H]1CSCN1C(=O)CNC(=O)c1ccnc2ccc(C3CCOCC3)cc12` [Example 20, (R)—N-(2-(4-Cyanothiazolidin-3-yl)-2-oxoethyl)-6-(tetrahydro-2H-pyran-4-yl)quinoline-4-carboxamide], inhibition in assay [1] was half-maximal at 8.8 nM (IC50).

For orientation: IC50 means the concentration that gives 50% inhibition. A low value points to greater potency in that assay.

The values are drawn from patent US20260070899A1, “N-(2-(4-CYANOTHIAZOLIDIN-3-YL)-2-OXOETHYL)-QUINOLINE-4-CARBOXAMIDES” (AstraZeneca AB, priority 2022, published 2026).
